Data on two molecules can be found in US6384085B1, “Material separated from Ecklonia cava, method for extracting and purifying the same, and use thereof as antioxidants” (Ventree Co., Ltd., priority 2000, dated 2002).

The nature of data set [1]: Antioxidative activity: DPPH radical scavenging activity according to the Blois method. Format: biochemical. The following applies: 10 min reaction, absorbance at 517 nm. Here is the method:
(§1) The antioxidative activity of the novel compound obtained through the extraction and purification process is evaluated by measuring its radical scavenging activity against 1,1-diphenyl-2-picrylhydrazyl (DPPH), which has free radicals attached thereto, according to the Blois method. A thermal stability of the compound of interest can be evaluated by measuring its antioxidative activity at plural temperature points.
(§2) Dicaval C obtained in Example 3 was measured for antioxidative activity according to the Blois method. For this, an examination was made of the radical scavenging activity of the compound against 1,1-diphenyl-2-picrylhydrazyl (DPPH) to which free radicals were attached. First, 20 mg of DPPH was dissolved in 150 ml of ethanol to prepare a DPPH solution. To 600 μl of the DPPH solution was added 250 μl of dimethylsulfoxide (DMSO), diluted with an appropriate amount of ethanol and shaken for 10 seconds, after which this control was adjusted, in absorbance at 517 nm, from 0.94 to 0.97. To 1 ml of the DPPH solution which was adjusted from 0.94 to 0.97 likewise, each of the samples (μg to mg) was added and then, reacted for 10 min, followed by measuring the absorbance of the solution. The antioxidative activity of each of the samples was determined by the DPPH radical scavenging activity which was represented by a reduced absorbance compared with that of the control.

A short description of data set [2]: Thermal stability: antioxidative activity (DPPH) after heating for 1 hour. Format: physicochemical. As to the method: as §1, §2
50 μg of Dicaval C obtained in Example 3 was heated at 40° C., 60° C., 80° C., and 100° C. for 1 hour to measure antioxidative activity.
For orientation: Loss of DPPH colour is used to gauge radical scavenging.

[3] abbreviates: 50 μg heated at 40 °C for 1 hour.
Where [4] appears, read: 50 μg heated at 60 °C for 1 hour.
The mark [5] stands for this setting: 50 μg heated at 80 °C for 1 hour.
Where [6] appears, read: 50 μg heated at 190 °C [sic] for 1 hour.

In the case of `O=C1O[C@H]([C@@H](O)CO)C(O)=C1O` [Ascorbic acid, reference compound], the “DPPH radical scavenging activity (antioxidative activity)” value in data set [1] (sample amount 10 μg), in data set [1] (sample amount 20 μg) and in data set [1] (sample amount 100 μg) was 100% in each case.
Take `Oc1cc(O)cc(Oc2cc(O)c(O)c3c2Oc2c(O)cc(O)cc2O3)c1` [Dicaval C]: the “DPPH radical scavenging activity (antioxidative activity)” value came to 82% in data set [1] (sample amount 10 μg), 100% in data set [1] (sample amount 20 μg) and 100% in data set [1] (sample amount 100 μg). For the same molecule, the “Antioxidativity (Absorb. change)” value is on record as 0.87 in data set [2] (setting [3]), 0.86 in data set [2] (setting [4]), 0.89 in data set [2] (setting [5]) and 0.88 in data set [2] (setting [6]). Moreover, the “Notes (thermal stability)” value in data set [2] (setting [3]), in data set [2] (setting [4]), in data set [2] (setting [5]) and in data set [2] (setting [6]) was “Stable” throughout.
